Assay results taken from the kinase profiling compilation of Christmann-Franck et al. (2016).

What was measured:
Assay in all cases: radiometric filter-binding kinase assay, Kinase HotSpot
Settings in all cases: compound 0.5 µM; ATP 10 µM
CAMKK2 (human) = CAMKK2 (human) (UniProt Q96RR4)
MKNK2 (human) = MKNK2 (human) (UniProt Q9HBH9)
PHKG2 (human) = PHKG2 (human) (UniProt P15735)
ACVR1B (human) = ACVR1B (human) (UniProt P36896)
DMPK (human) = DMPK (human) (UniProt Q09013)
ADRBK1 (human) = ADRBK1 (human) (UniProt P25098)
INSRR (human) = INSRR (human) (UniProt P14616)
FGFR1 (human) = FGFR1 (human) (UniProt P11362)
NEK7 (human) = NEK7 (human) (UniProt Q8TDX7)
PTK6 (human) = PTK6 (human) (UniProt Q13882)
CDK1 CCNA2 (human) = CDK1 CCNA2 (human) (UniProt P06493+P20248)
DDR2 (human) = DDR2 (human) (UniProt Q16832)
CSNK1E (human) = CSNK1E (human) (UniProt P49674)
PTK2 (human) = PTK2 (human) (UniProt Q05397)
ERBB2 (human) = ERBB2 (human) (UniProt P04626)
MYLK2 (human) = MYLK2 (human) (UniProt Q9H1R3)
PHKG1 (human) = PHKG1 (human) (UniProt Q16816)
LIMK1 (human) = LIMK1 (human) (UniProt P53667)
KDR (human) = KDR (human) (UniProt P35968)
PRKACA (human) = PRKACA (human) (UniProt P17612)
MAP3K2 (human) = MAP3K2 (human) (UniProt Q9Y2U5)
PRKCH (human) = PRKCH (human) (UniProt P24723)
CAMK1 (human) = CAMK1 (human) (UniProt Q14012)
STK17A (human) = STK17A (human) (UniProt Q9UEE5)
PKN2 (human) = PKN2 (human) (UniProt Q16513)
GSK3A (human) = GSK3A (human) (UniProt P49840)
SRPK1 (human) = SRPK1 (human) (UniProt Q96SB4)
BRSK1 (human) = BRSK1 (human) (UniProt Q8TDC3)
PAK7 (human) = PAK7 (human) (UniProt Q9P286)
FRK (human) = FRK (human) (UniProt P42685)
CLK1 (human) = CLK1 (human) (UniProt P49759)
PRKCB2 (human) = PRKCB2 (human) (UniProt P05771)
NEK1 (human) = NEK1 (human) (UniProt Q96PY6)
DYRK1A (human) = DYRK1A (human) (UniProt Q13627)
RPS6KA2 KD1 KD2 (human) = RPS6KA2 KD1 KD2 (human) (UniProt Q15349)
DYRK3 (human) = DYRK3 (human) (UniProt O43781)
CDK5 CDK5R1 p25 (human) = CDK5 CDK5R1 p25 (human) (UniProt Q00535+Q15078)
PRKCE (human) = PRKCE (human) (UniProt Q02156)
PAK1 (human) = PAK1 (human) (UniProt Q13153)
RPS6KA6 KD1 KD2 (human) = RPS6KA6 KD1 KD2 (human) (UniProt Q9UK32)
STK11 (human) = STK11 (human) (UniProt Q15831)
MAPK13 (human) = MAPK13 (human) (UniProt O15264)

Chain of PTK2 (human) (Q05397 whole entry, looked up): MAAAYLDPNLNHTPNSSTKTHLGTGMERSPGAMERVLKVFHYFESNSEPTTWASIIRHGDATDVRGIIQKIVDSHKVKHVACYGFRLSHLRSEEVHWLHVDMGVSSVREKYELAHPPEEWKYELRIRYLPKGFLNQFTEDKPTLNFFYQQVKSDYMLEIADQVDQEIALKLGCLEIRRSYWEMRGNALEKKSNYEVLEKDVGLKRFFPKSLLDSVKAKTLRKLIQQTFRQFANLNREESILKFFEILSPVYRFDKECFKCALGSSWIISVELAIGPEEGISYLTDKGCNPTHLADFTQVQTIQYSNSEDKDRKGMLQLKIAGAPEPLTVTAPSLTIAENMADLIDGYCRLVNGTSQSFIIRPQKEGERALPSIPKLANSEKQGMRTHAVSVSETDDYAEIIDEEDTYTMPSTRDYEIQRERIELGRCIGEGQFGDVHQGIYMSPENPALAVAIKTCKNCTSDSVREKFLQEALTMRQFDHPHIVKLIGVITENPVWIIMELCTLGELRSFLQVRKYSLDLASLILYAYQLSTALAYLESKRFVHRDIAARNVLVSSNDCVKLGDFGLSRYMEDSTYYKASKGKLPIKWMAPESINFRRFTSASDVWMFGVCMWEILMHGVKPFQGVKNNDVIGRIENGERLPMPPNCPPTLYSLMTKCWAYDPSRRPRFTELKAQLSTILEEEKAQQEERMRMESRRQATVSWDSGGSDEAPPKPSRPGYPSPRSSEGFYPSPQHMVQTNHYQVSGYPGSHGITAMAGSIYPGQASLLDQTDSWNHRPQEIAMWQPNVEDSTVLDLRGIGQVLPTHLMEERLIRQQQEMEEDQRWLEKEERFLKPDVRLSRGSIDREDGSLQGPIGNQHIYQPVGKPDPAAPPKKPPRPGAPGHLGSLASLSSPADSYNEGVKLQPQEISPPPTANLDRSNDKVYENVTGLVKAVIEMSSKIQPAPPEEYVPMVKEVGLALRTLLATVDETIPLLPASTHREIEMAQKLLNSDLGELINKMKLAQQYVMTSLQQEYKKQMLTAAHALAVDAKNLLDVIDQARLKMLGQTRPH
Chain of GSK3A (human) (P49840 whole entry, looked up): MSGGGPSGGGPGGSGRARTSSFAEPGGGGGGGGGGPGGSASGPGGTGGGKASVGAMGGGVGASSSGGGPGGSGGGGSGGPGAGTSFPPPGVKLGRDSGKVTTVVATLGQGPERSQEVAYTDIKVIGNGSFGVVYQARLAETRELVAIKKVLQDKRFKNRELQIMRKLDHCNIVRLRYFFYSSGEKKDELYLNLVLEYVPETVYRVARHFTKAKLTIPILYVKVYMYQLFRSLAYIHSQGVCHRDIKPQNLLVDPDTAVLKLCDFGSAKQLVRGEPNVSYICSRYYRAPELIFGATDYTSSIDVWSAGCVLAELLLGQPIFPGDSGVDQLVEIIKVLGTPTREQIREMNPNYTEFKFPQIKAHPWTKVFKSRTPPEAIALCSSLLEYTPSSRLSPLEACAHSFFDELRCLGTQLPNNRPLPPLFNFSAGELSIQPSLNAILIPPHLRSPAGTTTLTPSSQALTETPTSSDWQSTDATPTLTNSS
Chain of PAK1 (human) (Q13153 whole entry, looked up): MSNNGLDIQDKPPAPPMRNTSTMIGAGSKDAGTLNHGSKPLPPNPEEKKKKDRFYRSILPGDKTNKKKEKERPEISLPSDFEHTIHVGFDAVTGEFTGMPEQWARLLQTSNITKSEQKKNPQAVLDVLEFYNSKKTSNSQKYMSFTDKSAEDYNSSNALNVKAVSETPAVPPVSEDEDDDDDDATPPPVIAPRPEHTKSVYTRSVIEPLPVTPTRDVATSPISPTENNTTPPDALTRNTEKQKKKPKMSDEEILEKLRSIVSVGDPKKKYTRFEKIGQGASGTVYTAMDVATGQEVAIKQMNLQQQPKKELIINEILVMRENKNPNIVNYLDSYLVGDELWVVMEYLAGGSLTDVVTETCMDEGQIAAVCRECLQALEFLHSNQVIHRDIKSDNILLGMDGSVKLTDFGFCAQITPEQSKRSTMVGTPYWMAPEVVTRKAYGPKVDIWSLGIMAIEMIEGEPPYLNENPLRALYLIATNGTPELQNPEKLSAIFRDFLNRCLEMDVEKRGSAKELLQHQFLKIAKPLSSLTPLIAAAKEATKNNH
Chain of CDK5 CDK5R1 p25 (human) (Q00535 whole entry, looked up): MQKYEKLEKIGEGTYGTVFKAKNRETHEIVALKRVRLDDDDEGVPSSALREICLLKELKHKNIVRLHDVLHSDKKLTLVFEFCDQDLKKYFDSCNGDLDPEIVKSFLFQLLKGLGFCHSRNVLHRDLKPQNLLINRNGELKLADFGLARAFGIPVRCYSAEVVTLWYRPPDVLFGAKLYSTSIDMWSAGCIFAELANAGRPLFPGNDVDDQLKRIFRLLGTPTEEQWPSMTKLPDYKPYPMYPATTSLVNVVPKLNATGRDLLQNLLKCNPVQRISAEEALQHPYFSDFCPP
Chain of CDK5 CDK5R1 p25 (human) (Q15078 whole entry, looked up): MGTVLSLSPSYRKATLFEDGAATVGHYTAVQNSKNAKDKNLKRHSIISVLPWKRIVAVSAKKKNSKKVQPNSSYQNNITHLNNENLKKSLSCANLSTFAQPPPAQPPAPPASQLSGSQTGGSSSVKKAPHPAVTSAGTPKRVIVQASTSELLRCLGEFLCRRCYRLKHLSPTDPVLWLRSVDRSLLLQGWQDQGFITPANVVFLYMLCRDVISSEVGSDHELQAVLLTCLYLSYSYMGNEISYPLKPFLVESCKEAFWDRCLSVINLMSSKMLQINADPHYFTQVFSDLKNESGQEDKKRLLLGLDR
Chain of KDR (human) (P35968 whole entry, looked up): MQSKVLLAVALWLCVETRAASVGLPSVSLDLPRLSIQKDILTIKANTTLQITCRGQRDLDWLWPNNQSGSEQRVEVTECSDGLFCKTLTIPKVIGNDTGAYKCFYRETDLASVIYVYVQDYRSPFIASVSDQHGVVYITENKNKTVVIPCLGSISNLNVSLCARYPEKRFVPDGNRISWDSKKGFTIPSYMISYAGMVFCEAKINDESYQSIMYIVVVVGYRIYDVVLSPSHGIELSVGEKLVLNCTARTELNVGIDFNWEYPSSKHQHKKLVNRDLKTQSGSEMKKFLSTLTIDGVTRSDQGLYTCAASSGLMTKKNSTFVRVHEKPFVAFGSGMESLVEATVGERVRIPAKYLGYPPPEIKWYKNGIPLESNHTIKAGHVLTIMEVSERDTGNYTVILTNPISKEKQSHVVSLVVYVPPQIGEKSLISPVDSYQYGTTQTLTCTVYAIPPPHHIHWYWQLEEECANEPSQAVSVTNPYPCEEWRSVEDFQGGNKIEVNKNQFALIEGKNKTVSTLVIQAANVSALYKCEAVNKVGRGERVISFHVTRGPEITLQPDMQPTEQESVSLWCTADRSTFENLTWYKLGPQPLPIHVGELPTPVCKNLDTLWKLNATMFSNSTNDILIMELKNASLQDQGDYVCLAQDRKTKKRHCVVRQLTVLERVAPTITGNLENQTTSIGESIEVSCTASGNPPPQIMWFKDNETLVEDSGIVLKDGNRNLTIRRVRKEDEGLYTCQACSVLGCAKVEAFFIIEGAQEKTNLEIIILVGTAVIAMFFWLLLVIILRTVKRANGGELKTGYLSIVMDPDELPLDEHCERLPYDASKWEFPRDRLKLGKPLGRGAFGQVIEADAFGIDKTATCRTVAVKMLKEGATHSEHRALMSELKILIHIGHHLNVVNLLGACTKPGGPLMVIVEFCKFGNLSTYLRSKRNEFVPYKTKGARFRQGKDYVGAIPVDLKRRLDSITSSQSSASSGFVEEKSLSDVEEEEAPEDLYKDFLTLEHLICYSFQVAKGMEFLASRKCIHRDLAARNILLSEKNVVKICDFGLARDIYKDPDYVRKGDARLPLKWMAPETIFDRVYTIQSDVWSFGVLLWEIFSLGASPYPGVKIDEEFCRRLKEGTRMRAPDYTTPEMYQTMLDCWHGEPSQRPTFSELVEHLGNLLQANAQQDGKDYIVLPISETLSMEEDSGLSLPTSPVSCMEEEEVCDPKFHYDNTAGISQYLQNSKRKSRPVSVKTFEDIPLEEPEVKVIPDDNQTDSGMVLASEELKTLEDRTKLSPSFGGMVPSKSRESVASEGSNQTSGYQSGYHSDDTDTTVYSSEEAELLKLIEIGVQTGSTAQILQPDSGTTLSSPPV
Chain of MKNK2 (human) (Q9HBH9 whole entry, looked up): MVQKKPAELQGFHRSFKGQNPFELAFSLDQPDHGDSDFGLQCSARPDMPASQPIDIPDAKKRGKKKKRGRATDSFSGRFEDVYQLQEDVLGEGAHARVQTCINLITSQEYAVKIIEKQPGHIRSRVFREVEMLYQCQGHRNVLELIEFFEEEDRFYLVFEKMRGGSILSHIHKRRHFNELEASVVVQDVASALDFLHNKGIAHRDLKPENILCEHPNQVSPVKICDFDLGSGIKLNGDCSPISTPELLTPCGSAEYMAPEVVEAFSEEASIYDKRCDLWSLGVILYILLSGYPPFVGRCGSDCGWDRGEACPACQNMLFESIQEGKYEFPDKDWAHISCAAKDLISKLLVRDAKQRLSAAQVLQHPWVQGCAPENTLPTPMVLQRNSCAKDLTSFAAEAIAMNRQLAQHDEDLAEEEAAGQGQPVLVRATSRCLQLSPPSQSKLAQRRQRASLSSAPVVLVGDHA
Chain of PHKG1 (human) (Q16816 whole entry, looked up): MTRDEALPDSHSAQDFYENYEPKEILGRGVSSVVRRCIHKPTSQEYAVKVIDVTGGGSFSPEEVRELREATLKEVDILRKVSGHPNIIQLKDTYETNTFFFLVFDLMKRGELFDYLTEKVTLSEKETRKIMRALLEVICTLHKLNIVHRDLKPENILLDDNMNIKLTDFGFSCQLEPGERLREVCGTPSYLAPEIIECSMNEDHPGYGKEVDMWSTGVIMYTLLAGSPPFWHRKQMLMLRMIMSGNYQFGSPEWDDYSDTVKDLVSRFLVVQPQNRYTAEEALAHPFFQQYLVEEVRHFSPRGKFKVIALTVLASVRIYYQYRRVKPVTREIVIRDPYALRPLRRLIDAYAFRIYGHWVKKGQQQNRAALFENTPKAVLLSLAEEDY

Cc1ccc(S(=O)(=O)/C=C/C#N)cc1
residual activity (CAMKK2 (human)): 102% | residual activity (MKNK2 (human)): 119% | residual activity (PHKG2 (human)): 109% | residual activity (ACVR1B (human)): 107% | residual activity (DMPK (human)): 89% | residual activity (ADRBK1 (human)): 102% | residual activity (INSRR (human)): 98% | residual activity (FGFR1 (human)): 106% | residual activity (NEK7 (human)): 93.4% | residual activity (PTK6 (human)): 93.1% | residual activity (CDK1 CCNA2 (human)): 96.7% | residual activity (DDR2 (human)): 96.4% | residual activity (CSNK1E (human)): 107% | residual activity (PTK2 (human)): 104% | residual activity (ERBB2 (human)): 94.2% | residual activity (MYLK2 (human)): 105% | residual activity (PHKG1 (human)): 95.8% | residual activity (LIMK1 (human)): 97.1% | residual activity (KDR (human)): 94.7% | residual activity (PRKACA (human)): 100% | residual activity (MAP3K2 (human)): 91.8% | residual activity (PRKCH (human)): 106% | residual activity (CAMK1 (human)): 98.8% | residual activity (STK17A (human)): 97.8% | residual activity (PKN2 (human)): 81.5% | residual activity (GSK3A (human)): 106% | residual activity (SRPK1 (human)): 99.7% | residual activity (BRSK1 (human)): 97.2% | residual activity (PAK7 (human)): 100% | residual activity (FRK (human)): 91.6% | residual activity (CLK1 (human)): 107% | residual activity (PRKCB2 (human)): 104% | residual activity (NEK1 (human)): 92.3% | residual activity (DYRK1A (human)): 107% | residual activity (RPS6KA2 KD1 KD2 (human)): 100% | residual activity (DYRK3 (human)): 101% | residual activity (CDK5 CDK5R1 p25 (human)): 86.8% | residual activity (PRKCE (human)): 106% | residual activity (PAK1 (human)): 89.5% | residual activity (RPS6KA6 KD1 KD2 (human)): 95.4% | residual activity (STK11 (human)): 91.1% | residual activity (MAPK13 (human)): 92.2%

CO[C@H]1CC2CC[C@@H](C)[C@@](O)(O2)C(=O)C(=O)N2CCCC[C@H]2C(=O)OC([C@H](C)C[C@@H]2CC[C@@H](O)[C@H](OC)C2)CC(=O)[C@H](C)/C=C(\C)[C@@H](O)[C@@H](OC)C(=O)[C@H](C)C[C@H](C)/C=C/C=C/C=C/1C (stereo partly specified)
residual activity (CAMKK2 (human)): 115% | residual activity (MKNK2 (human)): 88.1% | residual activity (PHKG2 (human)): 108% | residual activity (ACVR1B (human)): 97.6% | residual activity (DMPK (human)): 109% | residual activity (ADRBK1 (human)): 102% | residual activity (INSRR (human)): 102% | residual activity (FGFR1 (human)): 89.4% | residual activity (NEK7 (human)): 104% | residual activity (PTK6 (human)): 88% | residual activity (CDK1 CCNA2 (human)): 91.9% | residual activity (DDR2 (human)): 95.6% | residual activity (CSNK1E (human)): 102% | residual activity (PTK2 (human)): 103% | residual activity (ERBB2 (human)): 97.3% | residual activity (MYLK2 (human)): 103% | residual activity (PHKG1 (human)): 93% | residual activity (LIMK1 (human)): 89.8% | residual activity (KDR (human)): 98.1% | residual activity (PRKACA (human)): 99.8% | residual activity (MAP3K2 (human)): 94.8% | residual activity (PRKCH (human)): 104% | residual activity (CAMK1 (human)): 111% | residual activity (STK17A (human)): 95.9% | residual activity (PKN2 (human)): 89.8% | residual activity (GSK3A (human)): 106% | residual activity (SRPK1 (human)): 108% | residual activity (BRSK1 (human)): 99.9% | residual activity (PAK7 (human)): 106% | residual activity (FRK (human)): 106% | residual activity (CLK1 (human)): 107% | residual activity (PRKCB2 (human)): 89.1% | residual activity (NEK1 (human)): 104% | residual activity (DYRK1A (human)): 94.3% | residual activity (RPS6KA2 KD1 KD2 (human)): 89.5% | residual activity (DYRK3 (human)): 105% | residual activity (CDK5 CDK5R1 p25 (human)): 96.3% | residual activity (PRKCE (human)): 105% | residual activity (PAK1 (human)): 95.6% | residual activity (RPS6KA6 KD1 KD2 (human)): 118% | residual activity (STK11 (human)): 91.1% | residual activity (MAPK13 (human)): 121%

O=c1cc(N2CCOCC2)oc2c1ccc1ccccc12
residual activity (CAMKK2 (human)): 104% | residual activity (MKNK2 (human)): 88.5% | residual activity (PHKG2 (human)): 99.8% | residual activity (ACVR1B (human)): 103% | residual activity (DMPK (human)): 105% | residual activity (ADRBK1 (human)): 98.9% | residual activity (INSRR (human)): 97.4% | residual activity (FGFR1 (human)): 92.1% | residual activity (NEK7 (human)): 96.6% | residual activity (PTK6 (human)): 101% | residual activity (CDK1 CCNA2 (human)): 103% | residual activity (DDR2 (human)): 105% | residual activity (CSNK1E (human)): 92.5% | residual activity (PTK2 (human)): 108% | residual activity (ERBB2 (human)): 105% | residual activity (MYLK2 (human)): 97.7% | residual activity (PHKG1 (human)): 98.2% | residual activity (LIMK1 (human)): 98% | residual activity (KDR (human)): 86.8% | residual activity (PRKACA (human)): 102% | residual activity (MAP3K2 (human)): 109% | residual activity (PRKCH (human)): 94.7% | residual activity (CAMK1 (human)): 111% | residual activity (STK17A (human)): 94.6% | residual activity (PKN2 (human)): 93.2% | residual activity (GSK3A (human)): 97.1% | residual activity (SRPK1 (human)): 90.9% | residual activity (BRSK1 (human)): 100% | residual activity (PAK7 (human)): 108% | residual activity (FRK (human)): 98.8% | residual activity (CLK1 (human)): 98.3% | residual activity (PRKCB2 (human)): 99.9% | residual activity (NEK1 (human)): 106% | residual activity (DYRK1A (human)): 79% | residual activity (RPS6KA2 KD1 KD2 (human)): 98.8% | residual activity (DYRK3 (human)): 96% | residual activity (CDK5 CDK5R1 p25 (human)): 98.9% | residual activity (PRKCE (human)): 89.6% | residual activity (PAK1 (human)): 93.5% | residual activity (RPS6KA6 KD1 KD2 (human)): 95.4% | residual activity (STK11 (human)): 104% | residual activity (MAPK13 (human)): 99.8%
